We go through 35 compounds from ChEMBL document CHEMBL1153196, “Development of an in silico model for human skin permeation based on a Franz cell skin permeability assay” (Bioorg Med Chem Lett, 2010).

Data set [1] can be described thus: Lipophilicity, log D of the compound. The note with it: octanol/water. Type of data set: physicochemical.
The next data set concerns Zone of skin. The experiment in a line: Permeability in human skin after 48 hrs by Franz cell permeability assay.

In data set [1], `C[C@H](c1ccccc1)N(C)c1cc(C(F)(F)F)c(C#N)cn1` had a log distribution coefficient (logD) of 5.59.
On the same count and under the same terms, the same measure for `COc1ccc2c(c1)c(CC(=O)O)c(C)n2C(=O)c1ccc(Cl)cc1` [INDOMETHACIN]: 0.59.
Still for that read-out and setting: then `CC(C(=O)O)c1cccc(C(=O)c2ccccc2)c1` (centres undefined) [KETOPROFEN], with 0.56; and `NS(=O)(=O)c1cc2c(cc1Cl)N=CNS2(=O)=O` [CHLOROTHIAZIDE], with -0.78.
Same read-out and setting: then `CC(C)(C)NCC(O)c1cc(O)cc(O)c1` (centres undefined) [TERBUTALINE], with -2.14.
With `NC(=O)N1c2ccccc2C=Cc2ccccc21` [CARBAMAZEPINE], the “log Pe” value with Zone of skin is on record as 0.18. Also, the logD in data set [1] came to 2.67.
On to `C[C@@H]1C[C@H]2[C@@H]3CCC4=CC(=O)C=C[C@]4(C)[C@@]3(F)[C@@H](O)C[C@]2(C)[C@H]1C(=O)CO` [DESOXIMETASONE], for which the logD in data set [1] was 2.
On to `CC1(C)C(=O)N(c2ccc(C#N)c(C(F)(F)F)c2)C(=O)N1CCCCO` [RU-58841], for which the log distribution coefficient (logD) in data set [1] worked out at 2.41.
Turning to `O=C(O)c1cc(/N=N/c2ccc(S(=O)(=O)Nc3ccccn3)cc2)ccc1O` [SULFASALAZINE], the “log Pe” value with Zone of skin is -1.31. In data set [1], this compound yielded a logD of 0.05.
Consider `CC(=O)[C@H]1CC[C@H]2[C@@H]3CCC4=CC(=O)CC[C@]4(C)[C@H]3CC[C@]12C` [PROGESTERONE], for which the “log Pe” value with Zone of skin is recorded as 1.08.
Consider `CN1C(C(=O)Nc2ccccn2)=C(O)c2ccccc2S1(=O)=O` [PIROXICAM], for which, in data set [1], the logD is -0.35.
On the same count and under the same terms, then `CC(=O)CC(c1ccccc1)c1c(O)c2ccccc2oc1=O` (centres undefined) [WARFARIN], with 1.43; and `C[C@]12CC[C@H]3[C@@H](CCC4=CC(=O)CC[C@@]43C)[C@@H]1CC[C@@H]2O` [TESTOSTERONE], with 3.48.
The same measure, in the same setting: the same measure for `O=C(O)c1cccnc1Nc1cccc(C(F)(F)F)c1` [NIFLUMIC ACID]: 2.01; for `Nc1cc(N2CCCCC2)nc(N)[n+]1[O-]` [MINOXIDIL]: -3.99.
Still for that read-out and setting: then `CC(C)(C)c1ccc(C(O)CCCN2CCC(C(O)(c3ccccc3)c3ccccc3)CC2)cc1` (centres undefined) [TERFENADINE], with 3.72; and `C[C@@H]1C[C@H]2[C@@H]3CCC4=CC(=O)C=C[C@]4(C)[C@@]3(F)[C@@H](O)C[C@]2(C)[C@@]1(O)C(=O)CO` [DEXAMETHASONE], with 1.87.
Turning to `C[C@]12CCC(=O)C=C1CC[C@@H]1[C@@H]2[C@@H](O)C[C@@]2(C)[C@H]1CC[C@]2(O)C(=O)CO` [HYDROCORTISONE], the log distribution coefficient (logD) in data set [1] worked out at 1.43.
Still for that read-out and setting: the same measure for `COCCc1ccc(OCC(O)CNC(C)C)cc1` (centres undefined) [METOPROLOL]: -0.81; for `CCCn1c(=O)[nH]c(=O)c2[nH]cnc21` [ENPROFYLLINE]: 0.27.
Regarding `NS(=O)(=O)c1cc2c(cc1Cl)NCNS2(=O)=O` [HYDROCHLOROTHIAZIDE], the “log Pe” value with Zone of skin is recorded as -2.
Regarding `Cc1nn(-c2ccccc2)c(C)c1/C=N/N1CCN(Cc2ccccc2)CC1`, the logD in data set [1] was 3.65.
On the same count and under the same terms, then `C[C@]12C[C@H](O)[C@H]3[C@@H](CCC4=CC(=O)CC[C@@]43C)[C@@H]1CC[C@@H]2C(=O)CO` [CORTICOSTERONE], with 1.76.
Turning to `CCN1CCCC1CNC(=O)c1cc(S(N)(=O)=O)ccc1OC` (centres undefined) [SULPIRIDE], the “log Pe” value in the data set on Zone of skin was -1.48.
For `CC(C)Cn1c(=O)n(C)c(=O)c2[nH]cnc21` [ISOBUTYLMETHYLXANTHINE], the logD in data set [1] came out at 2.
Regarding `CCOC(=O)[C@H](CCc1ccccc1)N[C@@H](C)C(=O)N1CCC[C@H]1C(=O)O.O=C(O)/C=C\C(=O)O` [ENALAPRIL MALEATE], the “log Pe” value with Zone of skin was -1.72. The compound further displayed a logD in data set [1] of -0.55.
Regarding `CC(=O)Nc1cnc(-c2ccccc2)o1`, the pH-dependent lipophilicity (logD) in data set [1] is 1.22.
In data set [1], `N#Cc1ccc(-c2ccccc2O)cc1C(F)(F)F` had a logD of 3.63.
Turning to `CN(C)CCCN1c2ccccc2Sc2ccc(Cl)cc21` [CHLORPROMAZINE], the logD in data set [1] was 2.15.
Still for that read-out and setting: then `Clc1ccc(COC(Cn2ccnc2)c2ccc(Cl)cc2Cl)c(Cl)c1` (centres undefined) [MICONAZOLE], with 5.55; and `Nc1ccc(S(=O)(=O)Nc2ccccn2)cc1` [SULFAPYRIDINE], with 0.03; and `Cc1cc(=O)n(-c2ccccc2)n1C` [ANTIPYRINE], with 0.27.
Consider `COc1ccc2[nH]c([S+]([O-])Cc3ncc(C)c(OC)c3C)nc2c1` (centres undefined) [OMEPRAZOLE], for which the logD in data set [1] was 2.16.
The same measure, in the same setting: the same measure for `Oc1cccc2ncccc12`: 1.46.
On to `Cl.Clc1cccc(Cl)c1NC1=NCCN1` [CLONIDINE HYDROCHLORIDE], for which, in the data set with Zone of skin, the “log Pe” value was -0.68. The logD in data set [1] was 0.37.

Broadly, the logD is lipophilicity at a set pH, counting ionised and neutral species. A low value points to lower lipophilicity.
